Results as given in US20120151612A1, “NON-SURGICAL APPROACH TO PREVENT AND CORRECT CRANIOFACIAL MALFORMATIONS DURING DEVELOPMENT” (UNIVERSITY OF SOUTHERN CALIFORNIA, priority 2010, published 2012).
Entries after “also recorded” stand apart in the source; their conditions may differ.

Tests used:
[1] = tested on: Tgfbr2^fl/fl; Wnt1-Cre palate; assay: Palatal shelf organ culture, BrdU-labeled nuclei (Example 2); assay type: cell-based, mice; conditions: ex vivo organ culture, 100 μM, 24 hours
Description: (§1) Histological examination. Hematoxylin and eosin staining and BrdU staining were performed as described previously. Immunohistochernical staining was performed as described previously. Antibodies used for immunohistochemistry were anti-β-spectrin rabbit polyclonal, and anti-Tgf-βRIII mouse monoclonal antibodies (Santa Cruz Biotechnology), anti-Tgf-β2 mouse monoclonal, and anti-14-3-3ζ/δ rabbit polyclonal antibodies (Abeam). Fluorescence images were obtained using a fluorescence microscope (Model IX71, Olympus).
Palatal shelf organ culture. Time-pregnant mice were sacrificed at E13.5. Genotyping was carried out as described above. The palatal shelves were microdissected and cultures in serum-less chemically defined medium as previously described. After 24 hours in culture treated with p38 MAPK inhibitor SB203580 (100 μM), and neutralizing antibody for Tgf-β2 (2 μg/ml) or Tgf-βRIII (2 μg/ml), palates were harvested, fixed in 4% paraformaldehyde/0.1 M phosphate buffer (pH 7.4) and processed.

p38 MAPK [2] = assay: Immunoblot of p38 MAPK and 14-3-3ζ/δ phosphorylation in primary MEPM cells; assay type: cell-based, mice; conditions: Tgfbr2^fl/fl; Wnt1-Cre MEPM cells, 10 μM for 24 hours
Description: (§2) Primary MEPM cells. Primary MEPM cells were obtained from E13.5 embryos. Briefly, palatal shelves were dissected at E13.5, and trypsinized for 30 minutes at 37° C. in a CO2 incubator. After pipetting thoroughly, cells were cultured in Dulbecco's modified Eagle's medium containing 10% fetal bovine serum supplemented with penicillin, streptomycin, L-glutamate, sodium pyruvate, and nonessential amino acids.

[3] = tested on: Tgfbr2^fl/fl; Wnt1-Cre MEPM cells; assay: Lipid droplet accumulation (Oil Red O staining) in primary MEPM cells; assay type: cell-based, mice
Description: Histological examination. Cryosections were stained with Oil Red O to detect lipid production. Prepared sections were washed three times in phosphate buffer saline (PBS) (each wash 5 min) and fixed in 4% formaldehyde in 0.1 M phosphate buffer for 1 h at room temperature. Sections were then incubated for 15 min in 60% isopropanol and stained for 15 min with a filtered solution of three parts of Oil Red O (saturated in isopropanol) and two parts of ddH2O. For the next step, slides were briefly rinsed in 60% isopropanol and washed thoroughly in ddH2O. Cells were counterstained in Mayers Hematoxylin Solution.
as §2

MEPM cells = assay: Pulse-chase analysis of lipid droplet formation; assay type: cell-based, mice
Description: Pulse-chase analysis of lipid droplet formation. Chemical inducers, oleic acid for lipogenesis and isoproterenol for lipolysis, were added into culture medium to analyze lipid droplet formation. The number of lipid droplets per cell was counted. Oleic acid was added to the medium at 100 μM for 0, 60, and 120 min, and then washed out and changed to the medium with 100 μM isoproterenol for 10 and 30 min. Twenty cells were counted at each time point.

[4] = tested on: angiotensin-mediated Tgf-β signaling; conditions: patients of Marfan syndrome; cited from earlier work
[5] = tested on: Tgfbr2^fl/fl and Tgfbr2^fl/fl; Wnt1-Cre embryos; assay: Histological analyses of embryo organs (heart, kidney, liver) after feeding telmisartan to pregnant females; assay type: in vivo, mice
Description: (§3) Animals. To generate Tgfbr2^fl/fl; Wnt1-Cre mice, we mated Tgfbr2^fl/+; Wnt1-Cre with Tgfbr2^fl/fl mice. To generate Tgfbr2^fl/fl; Wnt1-Cre; Tgfb2^+/− mice, we mated Tgfbr2^fl/+; Wnt1-Cre; Tgfb2^+/− with Tgfbr2^fl/fl mice. To generate Tgfbr2^fl/fl; Wnt1-Cre; Alk5^fl/+ mice, we mated Tgfbr2^fl/+; Wnt1-Cre; Alk5^fl/fl with Tgfbr2^fl/fl; Alk5^fl/fl mice. Genotyping was performed using PCR primers as described previously^28, 29. Female Tgfbr2^fl/fl mice, which underwent timed matings with Tgfbr2^fl/+; Wnt1-Cre male mice, were treated with oral telmisartan (0.5 mg in 25 μl dimethyl sulfoxide per day by a feeding tube) or vehicle (25 μl dimethl sulfoxide by a feeding tube) from 0.5 day post-coitum (E0.5). Therapy was continued throughout pregnancy.
as §1, with “Immunohistochemical” for “Immunohistochernical”, “anti-Tgf-βrIII” for “anti-Tgf-βRIII”, “anti-14-3-3” for “anti-14-3-3ζ/δ”

[6] = tested on: Tgfbr2^fl/fl; Wnt1-Cre mice; assay: Rescue of cleft palate in Tgfbr2^fl/fl; Wnt1-Cre embryos after feeding telmisartan to pregnant females; assay type: in vivo; conditions: for cleft palate (in words): Tgfbr2 mutant mice, treatment of pregnant mice
Description: as §3

p38 MAPK [7] = assay: Immunoblotting of p38 MAPK activity in mice after telmisartan treatment; assay type: in vivo; conditions: Tgfbr2^fl/fl; Wnt1-Cre mice after telmisartan treatment
Description: Animals. To generate Tgfbr2^fl/fl; Wnt1-Cre mice, we mated Tgfbr2^fl/+; Wnt1-Cre with Tgfbr2^fl/fl mice. To generate Tgfbr2^fl/fl; Wnt1-Cre; Tgfb2^+/- mice, we mated Tgfbr2^fl/+; Wnt1-Cre; Tgfb2^+/- with Tgfbr2^fl/fl mice. To generate Tgfbr2^fl/fl; Wnt1-Cre; Alk5^fl/+ mice, we mated Tgfbr2^fl/+; Wnt1-Cre; Alk5^fl/fl with Tgfbr2^fl/fl; Alk5^fl/fl mice. Genotyping was performed using PCR primers as described previously^28, 29. Female Tgfbr2^fl/fl mice, which underwent timed matings with Tgfbr2^fl/+; Wnt1-Cre male mice, were treated with oral telmisartan (0.5 mg in 25 μl dimethyl sulfoxide per day by a feeding tube) or vehicle (25 μ[…] sulfoxide by a feeding tube) from 0.5 day post-coitum (E0.5). Therapy was continued throughout pregnancy. Immunological analysis. Immunoblots were performed as described previously. Antibodies used for immunoblotting were as follows: rabbit polyclonal antibodies against p38, JNK, and phospho-JNK (Cell Signaling Technology), 14-3-3ζ/δ, Smad2/3, […] (Abeam), phospho-14-3-3 (ABR), 14-3-3ε, and β-spectrin (Santa Cruz Biotechnology); rabbit monoclonal antibodies against phospho-p38, and phospho-Smad2 (Cell Signaling Technology); and mouse monoclonal antibodies against Smad4, and Tgf-βrIII (Santa Cruz Biotechnology), Tgf-β2 (Abeam), and GAPDH (Chemicon). MEPM cells were treated with or without p38 MAPK inhibitor SB203580 at 10 μM for 24 hours.

[8] = tested on: Tgfbr2^fl/fl; Wnt1-Cre mice; assay: Triacylglycerol level in mice after telmisartan treatment; assay type: in vivo; conditions: E18.5
Description: as §3
Triacylglycerol amount. Triacylglycerol amounts were measured by an enzymatic method using N-ethyl-N-(2-hydroxy-3-sulfopropyl)-3,5-dimethoxyaniline sodium salt according to the manufacturer's instructions (Wako). Data is expressed as mg per 100 mg protein.

[9] = tested on: palatal mesenchyme of E13.5 palatal explants; assay: Palatal shelf organ culture with bead implantation or antibody, BrdU cell proliferation and fusion (Example 1); assay type: cell-based, mice
Description: Palatal shelf organ cultures and bead implantation. Timed-pregnant mice were sacrificed on postcoital day 13.5 (E13.5). Genotyping was carried out as previously described (Depew et al., 1999; Satokata and Maas, 1994). Paired secondary palatal shelves were microdissected and cultured in serumless, chemically-defined medium as previously described (Ito et al., 2003). For bead implantation, Affi-Gel blue agarose beads (BioRad) were soaked in proteins as previously described (Zhang et al., 2002). […] Shh N-terminal peptide (R & D 7 systems) was used at 1 mg/ml, anti-Shh antibody (Developmental Studies Hybridoma Bank) was used at 0.30 mg/ml, and BSA was used at 10 ng/ml. Neutralizing antibodies to Fgf7 (MAB251) and Mouse IgG1 (MAB002) (R & D Systems) were added to the culture medium at concentrations of 50 μg/ml.
(§4) Apoptosis and cell proliferation. Following treatment with […] proteinase K for 15 minutes at room temperature, apoptotic cells were assayed by the TUNEL procedure using the In Situ Cell Death Detection (fluorescein) kit (Roche Molecular Biochemicals) by following the manufacturer's protocol. Cell proliferation was scored by injection of BrdU (5-bromo-2′-deoxy-uridine, Sigma. 100 μg/g body weight) into pregnant females 1 hour before recovery of embryos. For palatal organ culture, BrdU was supplemented into culture medium at concentration of 100 μM for 2 hours before harvest. […]

[10] = tested on: MEE of E13.5 wild type palatal shelves; assay: TUNEL apoptosis assay in palatal explants; assay type: cell-based, mice; conditions: Shh beads vs BSA beads
Description: (§5) Palatal shelf organ cultures and bead implantation. Timed-pregnant mice were sacrificed on postcoital day 13.5 (E13.5). Genotyping was carried out as previously described (Depew et al., 1999; Satokata and Maas, 1994). Paired secondary palatal shelves were microdissected and cultured in serumless, chemically-defined medium as previously described (Ito et al., 2003). For bead implantation, Affi-Gel blue agarose beads (BioRad) were soaked in proteins as previously described (Zhang et al., 2002). Tissues were harvested after 24 hours of culture and fixed in 4% paraformaldehyde for processing. Shh N-terminal peptide (R & D 7 systems) was used at 1 mg/ml, anti-Shh antibody (Developmental Studies Hybridoma Bank) was used at 0.30 mg/ml, and BSA was used at 10 ng/ml. Neutralizing antibodies to Fgf7 (MAB251) and Mouse IgG1 (MAB002) (R & D Systems) were added to the culture medium at concentrations of 50 μg/ml.
as §4, with “embryos.” for “embryos. For palatal organ culture, BrdU was supplemented into culture medium at concentration of 100 μM for 2 hours before harvest.”

Fgf7 expression = assay: In situ hybridization of Fgf7 in treated palatal explants; assay type: cell-based, mice; conditions: Shh beads vs BSA beads
Description: as §5
(§6) In situ hybridization. Samples for whole-mount and section in situ hybridization were fixed in freshly made 4% paraformaldehyde/PBS. In situ hybridizations were performed as previously described (Xu et al., 2005). The following cDNAs were used to generate antisense riboprobes: a 1.2 kb fragment of mouse Msx1, a 900 bp mouse Dlx5, a 1.6 kb mouse Gli1, and 640 bp mouse Shh. […]

[11] = tested on: Shh expression in the palatal epithelium; assay: In situ hybridization of Shh in treated palatal explants; assay type: cell-based, mice; conditions: Fgf7 beads
Description: as §5, §6

C[S+]([O-])c1ccc(-c2nc(-c3ccc(F)cc3)c(-c3ccncc3)[nH]2)cc1 (centres unmarked) [SB203580, 4-[4-(4-fluorophenyl)-2-(4-methylsulfinylphenyl)-1H-imidazol-5-yl]pyridine]
cell proliferation defect (BrdU-labeled nuclei) [1]: rescued cell proliferation
phosphorylation of 14-3-3ζ/δ (p38 MAPK [2]): inhibited
phosphorylation of p38 (Mapk14) (p38 MAPK [2]): inhibited
lipid droplet accumulation [3]: failed to detect lipid droplet accumulation; also recorded: Lipid droplets did not accumulate

CC(C)NCC(O)c1ccc(O)c(O)c1 (centres unmarked) [isoproterenol]
number of lipid droplets (MEPM cells; Tgfbr2^fl/fl MEPM cells, after switch to 100 μM isoproterenol): decreased immediately
lipid droplet number (MEPM cells; Tgfbr2^fl/fl, Wnt1-Cre MEPM cells, after switch to 100 μM isoproterenol): remained high

CCCCc1nc(Cl)c(CO)n1Cc1ccc(-c2ccccc2-c2nn[nH]n2)cc1 [losartan]
enlarged aorta [4]: prevents the enlarged aorta

CCCCCCCC/C=C\CCCCCCCC(=O)O [oleic acid]
number of lipid droplets (MEPM cells; MEPM cells of both Tgfbr2^fl/fl and Tgfbr2^fl/fl, Wnt1-Cre mice, oleic acid 100 μM): increased

CCCc1nc2c(C)cc(-c3nc4ccccc4n3C)cc2n1Cc1ccc(-c2ccccc2C(=O)O)cc1 [telmisartan, 2-(4-{[4-methyl-6-(1-methyl-1H-1,3-benzodiazol-2-yl)-2-propyl-1H-1,3-benzodiazol-1-yl]methyl}phenyl)benzoic acid]
effect on kidney or liver histology ([5]; Tgfbr2^fl/fl and Tgfbr2^fl/fl, Wnt1-Cre embryos): does not appear to affect kidney or liver
heart defect ([5]; Tgfbr2^fl/fl, Wnt1-Cre mice after telmisartan): does not rescue the heart defect
side-effects in other organs ([5]; embryos after telmisartan to pregnant females): without obvious side-effects in other organs
cell proliferation defect ([6]; Tgfbr2^fl/fl, Wnt1-Cre mice following telmisartan treatment): restored cell proliferation defect
cleft palate (in words) [6]: prevents the cleft palate
cleft palate (in words) ([6]; listed as Telmisartan): rescue cleft palate defects
cleft palate rescued, number of Tgfbr2^fl/fl; Wnt1-Cre mice ([6]; oral telmisartan 0.5 mg per day to pregnant females from E0.5): 5/18
up-regulated p38 MAPK activity (p38 MAPK [7]): restored to normal
increased triacylglycerol level [8]: restored to normal

Shh: Shh N-terminal peptide (R & D systems) used at 1 mg/ml, soaked into Affi-Gel blue agarose beads
palatal mesenchyme cell proliferation (BrdU) ([9]; E13.5 wild type palatal explants, Shh beads vs BSA beads): enhanced
palatal fusion of explants ([9]; Shh beads, two days of culture): able to fuse
apoptosis in the MEE (TUNEL) [10]: did not affect apoptosis
Fgf7 expression (Fgf7 expression): repressed

B1: Fgf7: Fgf7 protein on beads placed into E13.5 palatal shelves in vitro (protein)
chain: CNDMSPEQTATSVNCSSPERHTRSYDYMEGGDIRVRRLFCRTQWYLRIDKRGKVKGTQEMKNSYNIMEIRTVAVGIVAIKGVESEYYLAMNKEGKLYAKKECNEDCNFKELILENHYNTYASAKWTHSGGEMFVALNQKGIPVKGKKTKKEQKTAHFLPMAIT
Shh expression in the palatal epithelium ([11]; Dlx5−/− samples): inhibit Shh expression
Shh expression in the palatal epithelium ([11]; E13.5 palatal shelves, one day of culture, compared to BSA): dramatic reduction
